# Reference: patent US11337426B2, “Biological control agents against fire blight” (priority 2018, dated 2022)
# How the values were obtained:
# [1] = test system: E. amylovora S435; assay: Agar disc diffusion assay of cell-free supernatants and fractions; assay type: cell-based, Erwinia amylovora; settings: active fraction from bioassay-guided fractionation
# Experimental: To obtain cell-free supernatants, cultures of both strains were centrifuged at 25 000 rpm for 1 hour. The pellets were discarded and the supernatants were filtered using Stericup™ vacuum filtration system (0.2 μm). Fresh cell-free supernatants were used for the present research, but they could also be stored at +4° C. for one week, or at −20° C. for 6 months, while keeping their activity.
# 1 L of each bacterial culture was combined, and biomass was removed by centrifugation at 17 700×g for 20 min. The cell-free medium supernatant was applied to 40 g of pre-equilibrated Amberlite™ XAD-16 resin packed in a column. The XAD-16 column was subsequently washed with 1 L of H2O, and then eluted with 1 L of 100% methanol. The methanolic elution was evaporated to dryness by rotary evaporation, and the brown residue was redissolved in 5 ml of purified water (Milli-Q system; Millipore, Bedford, Mass.). The concentrated solution was then applied onto a 12 gram Biotage® SNAP Ultra C18 column to be fractionate using reverse-phase flash chromatography on a Biotage (Stockholm, Sweden) Isorela One instrument. This chromatography was performed using a linear gradient acetonitrile from 5% to 100% over 50 min at 15 ml min^−1. […] The bioactivity of these fractions was further determined by performing agar disc diffusion assay. […]
# [2] = test system: Erwinia amylovora strain S01; assay: Field trial to control fire blight on Rome apple trees, Geneva NY; assay type: in vivo
# Experimental: A field trial was conducted to determine the performance of the formulated product based on the vegetative cells of Pseudomonas poae FL10F and its extracellular metabolites produced in the supernatants and was compared to antibiotic (FireWall 17 WP Streptomycin), copper fungicide (Cueva, Certis, USA) and the biological product Blossom Protect based on two strains of Aureobasidium pullulans. […] Both antibiotic and copper that were used in this trial were EPA registered products. Pseudomonas poae FL10F was cultivated for 2 days at 30° C. and 200 rpm and reached an OD600 nm=2.50, which was empirically determined to represent 2.50×10^9 CFU/mL by plating serial dilutions of the suspension and counting colonies. A 4L of product based on Pseudomonas poae FL10F and its metabolites was produced as described above and was sprayed more than 2 months later on apple Rome trees. Three samples of this formulated product were retained in sterile 50 mL polypropylene centrifuge tubes at room temperature for long-term activity and bacterial count studies.
# The 4L product was used during in a field trial conducted in Phelps, (Geneva) NY to evaluate the product against fire blight. Apple Rome were used for this study that had 5 to 12 blossom clusters per tree. These were 1-year-old trees from Waffler Nursery, Wolcott, N.Y.
# The experimental treatments were applied using a CO2 Backpack sprayer that was calibrated to deliver 100 gallons per acre (Trees were sprayed to first drip with a “dilute” solution of products.) The sprayer was calibrated at 42 PSI and used 2 Hollow Cone (TXVK18) Nozzles.
# An evaluation of treatments was conducted using the method where scissors were dipped into a solution of a streptomycin sensitive Erwinia amylovora strain S01, and the two smallest leaves on each terminal or shoot were cut in half. This severe test is used to simulate infection that can occur following hailstorms. The scissors were dipped into the Erwinia amylovora S01 solution prior to each cut. The apical terminal shoot and the terminal leaves on any side shoots were cut. For the size of these trees, the number of terminals that were cut varied from 9 to 18. To evaluate the treatments for this method, each treatment was applied as before to all leaves and shoots of seven individual trees. The inoculations occurred near dusk, and 1.15 inches of rain occurred during the overnight period. All treatments were applied 30 minutes before the infection and then re-applied 24 hours after the initial inoculation. The second application of treatments was applied to the same trees. The product based on Fluorescent Pseudomonas poae FL10F and its metabolites was first diluted at a concentration of 20% (w/w) with water then it was mixed properly and sprayed.
# At 3 weeks following the scissor inoculation, each terminal shoot was rated for the length in inches with typical symptoms of fire blight (rated as SEVERITY). Then the percentage of all shoots that had any symptoms of fire blight was calculated as INCIDENCE).
# The objective of this trial was to compare the activity of P. poae FL with antibiotic (Streptomycin), copper fungicide (Cueva, Certis, USA) and the biological product Blossom Protect based on two strains of Aureobasidium pullulans (Porter et al., 1960). Apple trees were infected with […] CFU/mL solution of Erwinia amylovora. The concentration of various treatments applied are represented in Table 13. The medium used in Treatment 7 is the same one used to cultivate the P. poae FL composed of Nutrient Broth NB (Difco) supplemented with 0.5% (w/w) glycerol and a concentration of 4% NaCl (w/w). Neither the medium nor the treatments used were phytotoxic to apple leaves and no phytotoxicity was noted on the apple trees in this study.
# [3] = test system: E. amylovora S435; assay: Management of fire blight on shoots of potted McIntosh apple trees; assay type: in vivo, Erwinia amylovora; settings: treated 2 h after inoculation, formulations diluted to 20%, streptomycin 100 ppm, 10 d
# Experimental: A trial was conducted at the IRDA research station in Saint-Bruno-de-Montarville, Québec to evaluate the efficacies of the best isolates previously screened. To simulate fire blight, Malus x domestica ‘McIntosh’ cultivar trees were inoculated then treated 2 h later with 20% (w/w) isolate dilutions. Inoculum was obtained by suspending a 5-d culture of the virulent strain E. amylovora […] in potassium phosphate buffer (pH=6.5) in King B agar which favors the growth of this phytopathogen. The bacterial density was adjusted to ˜1×10^9 CFU/mL. Actively growing potted trees (cv. McIntosh grafted onto M26) were inoculated by transversely bisecting the two youngest leaves with scissors dipped in the inoculum. One or two shoots were inoculated per tree. Two hours after inoculation, candidate biological control agent suspensions were sprayed to runoff onto five trees per treatment using a low-pressure sprayer. The experimental design was completely randomized.
# Inoculated controls were sprayed either with water or with the medium used to formulate the candidate biocontrol products. Uninoculated controls were sprayed only with water. […] Severity scores were analyzed with a cumulative link mixed model (clmm) in the “ordinal” package of R. Treatment and observation date were used as fixed effects. […]
# [4] = 3 weeks, Strepmycin 2.4 oz wt/a
compound,measurement,setting,value
white line-inducing principle [WLIP],inhibition halos of the extracellular metabolite fraction on a lawn of E. amylovora S435,[1],comparable in diameter to that of the live strain itself or crude extracellular metabolites therefrom
[H]/N=C(/N)N[C@H]1[C@H](O)[C@@H](O)[C@H](O[C@@H]2O[C@@H](C)[C@](O)(C=O)[C@H]2O[C@@H]2O[C@@H](CO)[C@H](O)[C@@H](O)[C@@H]2NC)[C@@H](N/C(N)=N\[H])[C@@H]1O [Streptomycin],Fire blight Severity: Average length of shoot with symptoms of Fire blight,"[2]; 3 weeks after scissor inoculation, Strepmycin 8 oz wt/a, Cueva 64 fl oz/a, P. poae FL10F 20 % v/v, Blossom Protect 20 oz wt/a",3.89 INCHES
same,Fire blight Incidence: Average percentage of shoots with symptons of Fire blight following inoculation,[2]; [4],81.73%
same,Fire blight Severity: Average length of shoot with symptoms of Fire blight,[2]; [4],5.53 INCHES
same,Fire blight Incidence: Average percentage of shoots with symptons of Fire blight following inoculation,"[2]; 3 weeks, Strepmycin 8 oz wt/a, Cueva 64 fl oz/a, P. poae FL10F 20 % v/v, Blossom Protect 20 oz wt/a",52.39%
same,Phytotoxicity: Percentage of leaves with atypical symptoms,[2]; Strepmycin 2.4 oz wt/a,0.00%
same,Phytotoxicity: Percentage of leaves with atypical symptoms,"[2]; Strepmycin 8 oz wt/a, Cueva 64 fl oz/a, P. poae FL10F 20 % v/v, Blossom Protect 20 oz wt/a",0.00%
same,Median score (disease severity 0-4),[3],0
oxydifficidin,inhibition halos of the extracellular metabolite fraction on a lawn of E. amylovora S435,[1],comparable in diameter to that of the live strain itself or crude extracellular metabolites therefrom
